# According to patent US20250084079A1, “COMPOSITIONS AND METHODS FOR INHIBITION OF RAS” (TheRas, Inc., priority 2022, published 2025):
# pIC50: −log10 of the molar value. Like-named read-outs stand apart in the source and are kept apart here.
# Tests used:
# [1] = target: T1, Avi-KRAS G12D (1-169) GppNHp/RAF1 RBD-3xFLAG (52-151) (Homo sapiens, UniProt P01116, G12D); test: RAS-effector PPI HTRF disruption assay, Raf1-GppNHp-KRAS G12D; type: biochemical
# T1 construct: 100 nM Avi-KRAS G12D (1-169) GppNHp
# T1 sequence (P01116 1-169 isoform P01116-2 G12D): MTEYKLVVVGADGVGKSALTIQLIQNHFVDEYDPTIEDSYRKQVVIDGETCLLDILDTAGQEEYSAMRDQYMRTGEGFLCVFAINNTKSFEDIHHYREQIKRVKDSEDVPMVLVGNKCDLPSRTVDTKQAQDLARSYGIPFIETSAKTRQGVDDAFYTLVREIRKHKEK
# Experimental: (§1) A protein:protein interaction (PPI) Homogeneous Time Resolved Fluorescence (HTRF) assay was used to determine the effectiveness of compounds of the present disclosure in disrupting KRAS protein and effector (RAF1 or PIK3 CA) binding.
# (§2) The HTRF assay used the following reagents and proteins: (i) 375 nM Avi-KRAS G12D/Q25A (1-169) GppNHp/3×FLAG-PI3KCA (157-299); (ii) 100 nM Avi-KRAS G12D (1-169) GppNHp/RAF1 RBD-3×FLAG (52-151); (iii) 50 nM Avi-KRAS G12V (1-169) GppNHp/RAF1 RBD-3×FLAG (52-151); (iv) 50 nM Avi-KRAS WT (1-169) GppNHp/RAF1 RBD-3×FLAG (52-151); and (v) 35 nM Avi-PI3K RBD CA-3×FLAG; Assay Buffer: 50 mM Tris pH 7.5, 100 mM NaCl, 5 mM MgCl2, 0.1% BSA, 0.01% Tween, 1 mM TCEP, 10% DMSO; Bead Buffer: 50 mM Tris pH 7.5, 0.01% Tween 20; Assay volume: 20 μL (384 well plate-low volume format); and Compound titration: 100-0.02 μM, 3× dilution series.
# (§3) The HTRF assay employed the following protocol:
# (§4) Compounds were dispensed in assay plate (384-well, Grenier Bione #784075) using Echo (model 555) with dose response settings: 200 nL final volume, titration from 100 μM as a 10-point dilution series. Protein mix was prepared in assay buffer, and dispensed on plates, 10 μL per well, then incubated for 1 h at room temperature, with 700 rpm shaking. Reagents mix was prepared and dispensed on plates, 10 μL per well, then incubated for 1 h at room temperature, with 700 rpm shaking.
# (§5) Plates were analyzed on an Envision plate reader using the following setting: Excitation 320 nm, Bandwidth […]; Emission 615 nm, Bandwidth […], Gain 100%, Flashes 100, Lag 60 μs. Data was reported as percentage of activity, with DMSO as 100%. Data was plotted and analyzed using Prism 8. The SPR Kd, biochemical Raf1-KRAS G12D/G12V/WT-GppNHP and PI3KCA-KRAS G12D/Q25A-GppNHp disruption assay IC50 of selected compounds described herein are shown in Table 4.
# [2] = tested on: pERK in GP2d cells (KRAS G12D); test: Cell-based pERK HTRF assay in GP2d cell; details: 60 min incubation
# Experimental: A pERK assay (Perkin Elmer) was used to determine the effectiveness of compounds in disrupting KRAS G12D protein/effector signaling in cells.
# On Day 1, cells (GP2d) were seeded into 96-well plates at 3×10^4 cells/well in 80 μL complete growth media (DMEM, 10% FBS).
# On Day 2, cells were treated with compounds at 0.25% DMSO. The source plate was created with compounds diluted in media at 5-fold the final assay concentration. The compounds were run in a 9-point concentration curve starting at 1 μM, with a half-log dilution between concentrations. 20 μL was transferred onto the cell plates (final volume in wells was 100 μL). Plates were harvested after 60 min incubation by aspirating media and adding kit-supplied 1× supplemented lysis buffer to all wells (50 μL per well). Plates were then placed on a plate shaker and incubated at 850 rpm for an additional 30 min.
# Antibody mixture solution is prepared by diluting aliquoted d2 and Eu Cryptate antibodies 1:20 in kit supplied detection buffer, mix the diluted antibodies solutions (1:1 v:v). 4 μL of this solution is then added to a 384-well detection plate (Perkin Elmer; 6008230).
# Samples were homogenized by pipetting up and down and then transferred (16 μL of cell lysates) from the 96-well cell culture plate to two wells of the HTRF 384-well detection plate containing the antibody solution. Plates were centrifuged (524 g for 1 min) and allowed to incubate between 4 and 24 h at room temperature. Maximum signal is reached after 4 h incubation time and remains stable over a period of 24 hours. Therefore, readings can be made between 4 and 24 h of incubation. Plates were centrifuged again (524 g for Imin), then analyzed on the EnVision plate reader using the following settings: Excitation 320 nm, Bandwidth 75 nm; Emission 615 nm, Bandwidth 85 nm; Gain 100%; Flashes 100; Lag 60 μs.
# [3] = target: T2, Avi-KRAS WT (1-169) GppNHp/RAF1 RBD-3xFLAG (52-151) (Homo sapiens, UniProt P01116); test: RAS-effector PPI HTRF disruption assay, Raf1-GppNHp-KRAS WT; type: biochemical
# T2 construct: 50 nM Avi-KRAS WT (1-169) GppNHp
# T2 sequence (P01116 1-169 isoform P01116-2): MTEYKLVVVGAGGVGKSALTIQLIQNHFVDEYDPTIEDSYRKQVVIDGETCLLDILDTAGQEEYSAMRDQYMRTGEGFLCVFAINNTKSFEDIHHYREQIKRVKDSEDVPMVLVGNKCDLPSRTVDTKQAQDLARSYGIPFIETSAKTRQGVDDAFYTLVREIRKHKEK
# Experimental: as §1, §2, §3, §4, §5
# [4] = target: T3, Avi-KRAS G12D/Q25A (1-169) GppNHp/3xFLAG-PI3KCA (157-299) (Homo sapiens, UniProt P01116, G12D/Q25A); test: RAS-effector PPI HTRF disruption assay, PI3KCA-GppNHp-KRAS G12D/Q25A; type: biochemical
# T3 construct: 375 nM Avi-KRAS G12D/Q25A (1-169) GppNHp
# T3 sequence (P01116 1-169 isoform P01116-2 G12D/Q25A): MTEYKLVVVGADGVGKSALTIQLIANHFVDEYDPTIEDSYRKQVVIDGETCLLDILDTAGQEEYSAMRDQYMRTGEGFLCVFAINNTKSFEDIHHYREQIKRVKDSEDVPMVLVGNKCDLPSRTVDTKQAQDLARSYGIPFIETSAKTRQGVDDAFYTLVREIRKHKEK
# Experimental: as §1, §2, §3, §4, §5
# [5] = target: T4, Avi-KRAS G12V (1-169) GppNHp/RAF1 RBD-3xFLAG (52-151) (Homo sapiens, UniProt P01116, G12V); test: RAS-effector PPI HTRF disruption assay, Raf1-GppNHp-KRAS G12V; type: biochemical
# T4 construct: 50 nM Avi-KRAS G12V (1-169) GppNHp
# T4 sequence (P01116 1-169 isoform P01116-2 G12V): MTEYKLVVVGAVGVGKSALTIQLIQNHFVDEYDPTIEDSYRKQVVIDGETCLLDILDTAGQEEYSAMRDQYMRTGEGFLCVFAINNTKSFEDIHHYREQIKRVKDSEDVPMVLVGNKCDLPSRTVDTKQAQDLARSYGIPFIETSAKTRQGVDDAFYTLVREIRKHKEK
# Experimental: as §1, §2, §3, §4, §5
Compound,pIC50 [1],pIC50 ([2]; read-out: pERK-Gp2D-1 hr),pIC50 [3],pIC50 [4],pIC50 [5],"pIC50 ([2]; GP2d, 1 h)"
Nc1nc2c(-c3c(C(F)(F)F)cc4c(O[C@H]5CNCC5(F)F)nc(OC[C@@]56CCCN5C[C@H](F)C6)nc4c3F)ccc(F)c2s1 [Compound 28],5.00 to 6.00,6.00 to 7.00,5.00 to 6.00,< 5.00,< 5.00,–
C[C@H]1C[C@H](Oc2nc(OC[C@@]34CCCN3C[C@H](F)C4)nc3c(F)c(-c4ccc(F)c5sc(N)c(C#N)c45)c(Cl)cc23)CN1 [Compound 54],6.00 to 7.00,6.00 to 7.00,6.00 to 7.00,6.00 to 7.00,5.00 to 6.00,–
"N#Cc1c(N)sc2c(F)ccc(-c3c(Cl)cc4c(O[C@@H]5CN[C@@H](CO)C5)nc(OC[C@@]56CCCN5C[C@H](F)C6)nc4c3F)c12 (atropisomer, axis not shown) [Compound 69]",≥ 7.00,6.00 to 7.00,6.00 to 7.00,6.00 to 7.00,6.00 to 7.00,–
"C[C@@H]1NCC[C@H]1Oc1nc(OC[C@@]23CCCN2C[C@H](F)C3)nc2c(F)c(-c3ccc(F)c4sc(N)nc34)c(C(F)(F)F)cc12 (atropisomer, axis not shown) [Compound 8]",6.00 to 7.00,–,5.00 to 6.00,6.00 to 7.00,5.00 to 6.00,6.00 to 7.00
"Nc1nc2c(-c3c(C(F)(F)F)cc4c(O[C@@H]5CCNC5)nc(OC[C@@]56CCCN5C[C@H](F)C6)nc4c3Cl)ccc(F)c2s1 (atropisomer, axis not shown) [Compound 11]",< 5.00,< 6.00,< 5.00,< 5.00,< 5.00,–
"C[C@H]1NCC[C@H]1Oc1nc(OC[C@@]23CCCN2C[C@H](F)C3)nc2c(F)c(-c3ccc(F)c4sc(N)c(C#N)c34)c(C(F)(F)F)cc12 (single isomer, unassigned) [Compound 73]",≥ 7.00,≥ 7.00,≥ 7.00,≥ 7.00,≥ 7.00,–
Nc1nc2c(-c3c(C(F)(F)F)cc4c(O[C@H]5CNC[C@@H]5F)nc(OC[C@@]56CCCN5C[C@H](F)C6)nc4c3Cl)ccc(F)c2s1 [Compound 33],5.00 to 6.00,–,5.00 to 6.00,5.00 to 6.00,< 5.00,6.00 to 7.00
Nc1nc2c(-c3ncc4c(O[C@@H]5CCNC5)nc(OC[C@@]56CCCN5C[C@H](F)C6)nc4c3F)c(F)cc(F)c2s1 [Compound 32],< 5.00,–,< 5.00,< 5.00,< 5.00,< 6.00
Nc1nc2c(-c3c(C(F)(F)F)cc4c(O[C@H]5CCNC5)nc(OC[C@@]56CCCN5C[C@H](F)C6)nc4c3F)ccc(F)c2s1 [Compound 13],6.00 to 7.00,–,6.00 to 7.00,5.00 to 6.00,5.00 to 6.00,≥ 7.00
C[C@H]1NCC[C@@H]1Oc1nc(OC[C@@]23CCCN2C[C@H](Cl)C3)nc2c(F)c(-c3ccc(F)c4sc(N)c(C#N)c34)c(C(F)(F)F)cc12 [Compound 72],≥ 7.00,–,≥ 7.00,6.00 to 7.00,6.00 to 7.00,≥ 7.00
C[C@H]1NCC[C@H]1Oc1nc(OCC23CCCN2C[C@H](F)C3)nc2c(F)c(-c3ccc(F)c4sc(N)nc34)c(C(F)(F)F)cc12 (stereo partly drawn) [Compound 25],6.00 to 7.00,–,6.00 to 7.00,6.00 to 7.00,5.00 to 6.00,≥ 7.00
CC1(C)NCC[C@H]1Oc1nc(OC[C@@]23CCCN2C[C@H](F)C3)nc2c(F)c(-c3ccc(F)c4sc(N)nc34)c(C(F)(F)F)cc12 [Compound 27],6.00 to 7.00,–,5.00 to 6.00,< 5.00,5.00 to 6.00,6.00 to 7.00
"N#Cc1c(N)sc2c(F)ccc(-c3c(Cl)cc4c(O[C@@H]5CN[C@@H](CO)C5)nc(OC[C@@]56CCCN5C[C@H](F)C6)nc4c3F)c12 (atropisomer, axis not shown) [Compound 68]",< 5.00,< 6.00,< 5.00,< 5.00,< 5.00,–
N#Cc1c(N)sc2c(F)ccc(-c3c(F)cc4c(O[C@@H]5CCNC5)nc(OC[C@@]56CCCN5C[C@H](F)C6)nc4c3F)c12 [Compound 77],< 5.00,–,< 5.00,< 5.00,< 5.00,< 6.00
C[C@H]1NCC[C@H]1Oc1nc(OC[C@@]23CCCN2C[C@H](F)C3)nc2cc(-c3ccc(F)c4sc(N)nc34)c(C(F)(F)F)cc12 [Compound 35],6.00 to 7.00,–,5.00 to 6.00,< 5.00,5.00 to 6.00,6.00 to 7.00
N#Cc1c(N)sc2c(F)ccc(-c3ccc4c(O[C@H]5CNC[C@@H]5F)nc(OC[C@@]56CCCN5C[C@H](F)C6)nc4c3F)c12 [Compound 71],5.00 to 6.00,–,5.00 to 6.00,5.00 to 6.00,< 5.00,< 6.00
N#Cc1c(N)sc2c(F)ccc(-c3c(Cl)cc4c(O[C@@H]5CNC[C@@H]5F)nc(OC[C@@]56CCCN5C[C@H](F)C6)nc4c3F)c12 [Compound 63],6.00 to 7.00,–,5.00 to 6.00,5.00 to 6.00,5.00 to 6.00,6.00 to 7.00
N#Cc1c(N)sc2c(F)ccc(-c3ccc4c(O[C@H]5CNC[C@H]5F)nc(OC[C@@]56CCCN5C[C@H](F)C6)nc4c3F)c12 [Compound 66],5.00 to 6.00,–,5.00 to 6.00,5.00 to 6.00,< 5.00,6.00 to 7.00
"Nc1nc2c(-c3c(C(F)(F)F)cc4c(O[C@H]5CNC[C@H]5F)nc(OC[C@@]56CCCN5C[C@H](F)C6)nc4c3F)ccc(F)c2s1 [Compound 22, 7-fluoro-4-(8-fluoro-4-(((3S,4R)-4-fluoropyrrolidin-3-yl)oxy)-2-(((2R,7aS)-2-fluorotetrahydro-1H-pyrrolizin-7a(5H)-yl)methoxy)-6-(trifluoromethyl)quinazolin-7-yl)benzo[d]thiazol-2-amine]",< 5.00,–,5.00 to 6.00,5.00 to 6.00,< 5.00,–
"Nc1nc2c(-c3c(C(F)(F)F)cc4c(O[C@@H]5CCNC5)nc(OC[C@@]56CCCN5C[C@H](F)C6)nc4c3F)ccc(F)c2s1 (atropisomer, axis not shown) [Compound 4]",6.00 to 7.00,–,5.00 to 6.00,6.00 to 7.00,5.00 to 6.00,–
"Nc1nc2c(-c3c(C(F)(F)F)cc4c(O[C@H]5C[C@H]6CC[C@@H](C5)N6)nc(OCC56CCCN5CCC6)nc4c3F)ccc(F)c2s1 (atropisomer, axis not shown) [Compound 6]",5.00 to 6.00,–,5.00 to 6.00,5.00 to 6.00,< 5.00,–
